# Test results: patent US10627395B2, “Methods and systems for biomonitoring” (Newomics Inc., priority 2015, dated 2020)
# Like-named read-outs stand apart in the source and are kept apart here.
# Experiments:
# [1] = On-chip SPE-nanoLC-MS quantification of PFCs in human blood samples
# Procedure: Standard stock PFCs solutions are prepared by diluting PFC standards (a list of which is shown in Table 2) in methanol in polypropylene vials. All glassware is rinsed with methanol before use. For plasma samples spiked with PFCs, frozen pooled human plasma is obtained from Innovative Research Inc. (Novi, Mich.). A 5 microliter aliquot of human plasma is thawed and mixed with 2.5 microliters of internal standards (^13C8-PFOA and ^13C8-PFOS, 50 ng/ml), 2.5 microliters of PFC standards with desired concentration, and 20 microliters of cold acetonitrile with 0.1% formic acid. After vortexing for 2 min, the mixture is sonicated for 10 min and then centrifuged at 14,000 g for 15 min. 24 microliters of the supernatant is taken out and allowed to evaporate at room temperature until the volume is reduced to around 16 microliters. All samples are stored in polypropylene vials at minus 20 degree Celsius. Standard Reference Materials (SRMs) 1950 Metabolites in Human Plasma ordered from National Institute of Standards and Technology (NIST) are stored at minus 80 degree Celsius before use. NIST SRM 1950 is thawed at room temperature and prepared by the same procedure as pooled plasma samples for validation of the chip performance.
# The SPE run starts with conditioning a C18-packed SPE column by flowing 20 microliters of LC solvent B (95%/5% methanol/H2O with 2 mM ammonium acetate) at 10 microliters/min through the inlet port P1. The column is then equilibrated with 20 microliters of LC solvent A (5%/95% methanol/H2O with 2 mM ammonium acetate) at 10 microliters/min. Four microliters of the sample (containing lmicroliters of plasma) are injected into a 20-microliter sample loop and loaded onto the SPE column, followed by washing with 20 microliters of LC solvent A at 10 microliters/min. Next, the analytes are eluted from the SPE column with LC solvent B at 1 microliter/min and transferred to the trap column by mixing it with another stream of LC solvent A through the port P3 (20 microliters/min). The passive microfluidic mixer including herringbone structures enables efficient mixing of two streams and thus prevents heterogeneous streaming of organic solvent from the SPE eluent, allowing the analytes to be enriched on the trap column efficiently. Finally the HPLC gradient elution at flow rate of 600 nl/min is run to separate the analytes that are to be analyzed by nanoESI-MS. The LC solvent A consists of 5%/95% methanol/H2O with 2 mM ammonium acetate, and solvent B consists of 95%/5% methanol/H2O with 2 mM ammonium acetate. […] After that, it is increased to 95% B in 5 minutes and held at 95% B for 5 minutes. Finally it returns to the initial condition (10% B) in 2 minutes and is held for 5 minutes. The total time period for each SPE-LC-MS run is about one hour. Negative-ion-mode MS detection are performed on a hybrid quadrupole/orthogonal Q-TOF API US mass spectrometer (Waters Corp.). The capillary voltage and cone voltage are set to −2.4 kV and 25 V, respectively, and the collision energy is fixed at 10 eV. The nanoelectrospray process on emitters is visualized and monitored using a Waters nanoflow camera kit equipped with a MLH-10 Zoom lenses (Computar).
# The raw LC-MS data are processed using MassLynx 4.0 software package provided with the Q-TOF API US instrument (Waters Corp.). Extracted ion chromatograms (EIC) for all target analytes are generated using their corresponding precursor/product ions with a mass window of 0.10 Da. The peak area ratio of each analyte relative to its corresponding isotope-labelled internal standard is used for quantification. For perfluorocarboxylate compounds, their product ions are used for quantitation, because their product ions are more abundant (3-5 times) than precursor ions under current MS settings. The abundance ratio between the product ion and precursor ion for each perfluorocarboxylate compound is found to be consistent over the wide concentration range (1-100 ng/ml). […]
# [2] = NIST SRM 1950 human plasma; reference value provided by NIST; cited from earlier work
# [3] = U.S. population of 20 years and older, cited from earlier work
# [4] = molecular target: human serum albumin (HSA) (Homo sapiens, UniProt P02768); conditions: cited from earlier work
# [5] = NIST SRM 1950 human plasma, SPE-LC-MS chip
# [6] = pooled human plasma, SPE-LC-MS chip
# Sequence of human serum albumin (HSA) (P02768 25-609): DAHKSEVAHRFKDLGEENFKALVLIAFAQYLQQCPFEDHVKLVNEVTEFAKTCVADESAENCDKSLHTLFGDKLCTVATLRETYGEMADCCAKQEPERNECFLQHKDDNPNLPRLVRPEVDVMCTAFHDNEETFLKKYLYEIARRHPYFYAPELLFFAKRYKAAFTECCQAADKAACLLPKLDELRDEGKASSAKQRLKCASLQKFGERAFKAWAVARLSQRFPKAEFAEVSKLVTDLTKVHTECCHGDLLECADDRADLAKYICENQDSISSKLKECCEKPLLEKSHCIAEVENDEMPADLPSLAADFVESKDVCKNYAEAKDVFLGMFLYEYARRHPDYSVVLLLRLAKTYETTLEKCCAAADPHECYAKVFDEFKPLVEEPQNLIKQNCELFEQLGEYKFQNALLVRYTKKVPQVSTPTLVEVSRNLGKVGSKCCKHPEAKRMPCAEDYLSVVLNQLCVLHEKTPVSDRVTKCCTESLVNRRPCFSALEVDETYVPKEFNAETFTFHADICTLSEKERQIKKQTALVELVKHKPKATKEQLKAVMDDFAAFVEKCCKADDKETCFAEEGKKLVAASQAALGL
"Concentration of PFCs, NIST SRM 1950, Measured Value ([1]; human)","Concentration of PFCs, Pooled plasma, Measured Value ([1]; human)",SMILES,"Concentration of PFCs, NIST SRM 1950, Measured Value [1, 5]","Concentration of PFCs, Pooled plasma, Measured Value [1, 6]","Concentration of PFCs, NIST SRM 1950, Reference Value [2]","Individual serum, National Exposure Report by CDC, geometric mean (95% confidence interval) ([3]; survey year 2009-2010)","Individual serum, National Exposure Report by CDC, geometric mean (95% confidence interval) ([3]; survey year 2011-2012)",number of PFOA binding sites to human serum albumin (HSA) [4],PFOA bound to HSA in human blood ([4]; human blood)
,,"O=S(=O)(O)C(F)(F)C(F)(F)C(F)(F)C(F)(F)C(F)(F)C(F)(F)C(F)(F)C(F)(F)F [PFOS, Perfluorooctane sulfonic acid]",11.1 ± 0.36 ng/mL,4.76 ng/mL,10.6 ± 0.13 ng/mL,9.72 (8.45-11.2) ng/ml,6.71 (6.24-7.20) ng/ml,,
0.172 ± 0.078 ng/mL,0.094 ng/mL,"NS(=O)(=O)C(F)(F)C(F)(F)C(F)(F)C(F)(F)C(F)(F)C(F)(F)C(F)(F)C(F)(F)F [PFOSA, Perfluorooctane sulfonamide]",,,,<0.1; <0.1 ng/ml,<0.1; <0.1 ng/ml,,
,,"O=C(O)C(F)(F)C(F)(F)C(F)(F)C(F)(F)C(F)(F)C(F)(F)C(F)(F)F [PFOA, Perfluorooctanoic acid]",,,,,,over 6,more than 90%
,,"O=S(=O)(O)C(F)(F)C(F)(F)C(F)(F)C(F)(F)C(F)(F)C(F)(F)F [PFHxS, Perfluorohexane sulfonic acid]",3.53 ± 0.38 ng/mL,1.18 ng/mL,3.25 ± 0.080 ng/mL,1.61 (1.45-1.79) ng/ml,1.28 (1.14-1.43) ng/ml,,
,,"O=C(O)C(F)(F)C(F)(F)C(F)(F)C(F)(F)C(F)(F)C(F)(F)C(F)(F)C(F)(F)C(F)(F)F [PFDeA, Perfluorodecanoic acid]",0.364 ± 0.033 ng/mL,0.279 ng/mL,0.322 ± 0.007 ng/mL,0.289 (0.265-0.314) ng/ml,0.209(0.189-0.230) ng/ml,,
